In patent US20250296971A1, “GASTRIC INHIBITORY PEPTIDE RECEPTOR LIGANDS” (priority 2021, published 2025):
Where two headings read alike, the source gives them in different places. *1 amine or outer side, *2 acyl side, *3 side chain or, on linkers, in order; H or OH if unused. Where a SMILES comes first, the peptide text is derived from it. Bridges are numbered along the chain shown (N, C = ends). Side-chain parts run from the residue outwards. [ ]: non-standard residue; d: D form. The star is where a group is joined. NH(1-deoxy-D-glucityl) = OC[C@@H](O)[C@@H](O)[C@H](O)[C@@H](O)CN*; DOTA = O=C(O)CN1CCN(CC(=O)O)CCN(CC(=O)*)CCN(CC(=O)O)CC1; Trp(5-Cl) = N[C@@H](Cc1c[nH]c2ccc(Cl)cc12)C(=O)O; Pyridine(2,6-diCH2) = c1cc(C[*:1])nc(C[*:2])c1; Phe(2-Cl) = N[C@@H](Cc1ccccc1Cl)C(=O)O; Pro(4R-NH2) = N[C@H]1CN[C@H](C(=O)O)C1; 1Nal = N[C@@H](Cc1cccc2ccccc12)C(=O)O; mXylylene = c1cc(C[*:1])cc(C[*:2])c1; Glutaryl = O=C(CCCC(=O)[*:2])[*:1]; Hyp = O=C(O)[C@@H]1C[C@@H](O)CN1; X1 = O=C(CN1CCC(N[*:1])CC1)[*:2]; pS = N[C@@H](COP(=O)(O)O)C(=O)O; Api = NC1(C(=O)O)CCNCC1; Thp = NC1(C(=O)O)CCOCC1; Aib = CC(C)(N)C(=O)O

Biological target: T1, GIPR (CHO-K1-hGIPR cells) (Homo sapiens, UniProt P48546)
T1 construct: host or cells: CHO-K1
T1 sequence (P48546 22-466): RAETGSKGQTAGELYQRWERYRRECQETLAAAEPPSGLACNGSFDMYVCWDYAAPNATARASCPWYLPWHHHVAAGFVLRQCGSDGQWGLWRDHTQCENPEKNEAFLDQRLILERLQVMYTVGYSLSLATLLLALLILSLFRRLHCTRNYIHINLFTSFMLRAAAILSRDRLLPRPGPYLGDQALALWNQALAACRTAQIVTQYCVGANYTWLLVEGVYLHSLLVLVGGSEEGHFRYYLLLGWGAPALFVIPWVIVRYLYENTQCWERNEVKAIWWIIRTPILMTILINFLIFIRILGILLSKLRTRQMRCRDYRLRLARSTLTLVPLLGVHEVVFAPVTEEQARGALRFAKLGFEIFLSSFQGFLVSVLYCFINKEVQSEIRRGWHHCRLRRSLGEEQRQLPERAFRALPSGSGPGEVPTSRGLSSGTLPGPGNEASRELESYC
Assay: FACS binding assay
Settings: read-out: pIC50 Category (converted)
Procedure, shortened: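 CHO-K1 cells expressing human GIPR, washed in PBS/1% FCS, then stained with 1 μg/mL APC-streptavidin for 30 min on ice.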

[1] = competition with 20 nM GIP-057, 4° C., 1 hour
[2] = competition with 20 nM GIP-057, 4° C. for 1 hour

| SMILES | IC50 [1] [nM] | IC50 [2] [nM] |
| --- | --- | --- |
| CC[C@H](C)[C@@H]1NC(=O)[C@H](CC(C)C)NC(=O)C2(CCN(C(=O)CCCC(=O)NC[C@H](O)[C@@H](O)[C@H](O)[C@H](O)CO)CC2)NC(=O)[C@@H](NC(=O)[C@@H](CC(C)C)NC(=O)[C@H](CCC(=O)O)NC(=O)[C@@H]2C[C@@H](N)CN2C(=O)[C@H](Cc2c[nH]c3ccc(Cl)cc23)NC(=O)[C@H](Cc2c[nH]c3ccccc23)NC(=O)[C@H](CC(=O)O)NC(=O)CN2CCC(NC(=O)CN3CCN(CC(=O)O)CCN(CC(=O)O)CCN(CC(=O)O)CC3)CC2)CSCc2cccc(n2)CSC[C@@H](C(=O)NC2CCN(CC(=O)N[C@H](CCC(=O)NC[C@H](O)[C@@H](O)[C@H](O)[C@H](O)CO)C(N)=O)CC2)NC1=O [GIP-012, DOTA-APAc-Asp-Trp-5Clw-Hyp-Glu-leu-[Cys(2Lut)-Apc(AGLU-Glutar)-Leu-Ile-Cys]-APAc-glu(AGLU)-NH2] ({DOTA}-[X1]DW[Trp(5-Cl)][Pro(4R-NH2)]E[dL]C[Api]([Glutaryl-NH(1-deoxy-D-glucityl)])LIC[X1][dE](NH(1-deoxy-D-glucityl))-NH2; linker 8-12 via Pyridine(2,6-diCH2)) | < 10 | – |
| CC[C@H](C)[C@@H]1NC(=O)[C@H](CC(C)C)NC(=O)C2(CCOCC2)NC(=O)[C@@H](NC(=O)[C@@H](CC(C)C)NC(=O)[C@H](CCC(=O)O)NC(=O)[C@@H]2C[C@@H](O)CN2C(=O)[C@H](Cc2ccccc2Cl)NC(=O)[C@H](Cc2c[nH]c3ccccc23)NC(=O)[C@H](CC(=O)O)NC(C)=O)CSCc2cccc(n2)CSC[C@@H](C(N)=O)NC1=O [GIP-349, Ac-Asp-Trp-Ocf-Hyp-Glu-leu-[Cys(2Lut)-Thp-Leu-Ile-Cys]-NH2] (Ac-DW[Phe(2-Cl)][Hyp]E[dL]C[Thp]LIC-NH2; linker 7-11 via Pyridine(2,6-diCH2)) | – | > 1000 |
| CC[C@H](C)[C@@H]1NC(=O)[C@H](CC(C)C)NC(=O)C2(CCOCC2)NC(=O)[C@@H](NC(=O)[C@@H](CC(C)C)NC(=O)[C@H](CCC(=O)O)NC(=O)[C@@H]2C[C@@H](O)CN2C(=O)[C@H](Cc2c[nH]c3ccc(Cl)cc23)NC(=O)[C@H](Cc2ccccc2Cl)NC(=O)[C@H](CC(=O)O)NC(C)=O)CSCc2cccc(n2)CSC[C@@H](C(=O)N[C@H](CCCCNC(=O)CN2CCN(CC(=O)O)CCN(CC(=O)O)CCN(CC(=O)O)CC2)C(N)=O)NC1=O [GIP-399, Ac-Asp-Ocf-5Clw-Hyp-Glu-leu-[Cys(2Lut)-Thp-Leu-Ile-Cys]-lys(DOT A)-NH2] (Ac-D[Phe(2-Cl)][Trp(5-Cl)][Hyp]E[dL]C[Thp]LIC[dK](DOTA)-NH2; linker 7-11 via Pyridine(2,6-diCH2)) | – | 100 to 794 |
| CC[C@H](C)[C@@H]1NC(=O)[C@H](CC(C)C)NC(=O)C(C)(C)NC(=O)[C@@H](NC(=O)[C@H](CCCCN)NC(=O)[C@H](CCC(=O)O)NC(=O)[C@@H]2CCCN2C(=O)[C@H](Cc2cccc3ccccc23)NC(=O)[C@H](Cc2c[nH]c3ccccc23)NC(=O)[C@H](CC(=O)O)NC(C)=O)CSCc2cccc(c2)CSC[C@@H](C(N)=O)NC1=O [GIP-345, Ac-Asp-Trp-1Ni-Pro-Glu-Lys-[Cys(3MeBn)-Aib-Leu-Ile-Cys]-NH2] (Ac-DW[1Nal]PEKC[Aib]LIC-NH2; linker 7-11 via mXylylene) | – | > 1000 |
| CC[C@H](C)[C@@H]1NC(=O)[C@H](CC(C)C)NC(=O)C2(CCOCC2)NC(=O)[C@@H](NC(=O)[C@@H](CC(C)C)NC(=O)[C@H](COP(=O)(O)O)NC(=O)[C@@H]2C[C@@H](O)CN2C(=O)[C@H](Cc2c[nH]c3ccc(Cl)cc23)NC(=O)[C@H](Cc2c[nH]c3ccccc23)NC(=O)[C@H](CC(=O)O)NC(C)=O)CSCc2cccc(n2)CSC[C@@H](C(N)=O)NC1=O [GIP-208, Ac-Asp-Trp-5Clw-Hyp-Pse-leu-[Cys(2Lut)-Thp-Leu-Ile-Cys]-NH2] (Ac-DW[Trp(5-Cl)][Hyp][pS][dL]C[Thp]LIC-NH2; linker 7-11 via Pyridine(2,6-diCH2)) | < 10 | – |
| CC[C@H](C)[C@@H]1NC(=O)[C@H](CC(C)C)NC(=O)[C@@H](CCCCNC(=O)CN2CCN(CC(=O)O)CCN(CC(=O)O)CCN(CC(=O)O)CC2)NC(=O)[C@@H](NC(=O)[C@@H](CC(C)C)NC(=O)[C@H](CCC(=O)O)NC(=O)[C@@H]2C[C@@H](N)CN2C(=O)[C@H](Cc2c[nH]c3ccc(Cl)cc23)NC(=O)[C@H](Cc2c[nH]c3ccccc23)NC(=O)[C@H](CC(=O)O)NC(=O)CCCC(=O)NC[C@H](O)[C@@H](O)[C@H](O)[C@H](O)CO)CSCc2cccc(n2)CSC[C@@H](C(=O)NC2CCN(CC(=O)N[C@H](CCC(=O)NC[C@H](O)[C@@H](O)[C@H](O)[C@H](O)CO)C(N)=O)CC2)NC1=O [GIP-025, AGLU-Glutar-Asp-Trp-5Clw-Tap-Glu-leu-[Cys(2Lut)-lys(DOTA)-Leu-Ile-Cys]-APAc-glu(AGLU)-NH2] ({NH(1-deoxy-D-glucityl)-Glutaryl}-DW[Trp(5-Cl)][Pro(4R-NH2)]E[dL]C[dK](DOTA)LIC[X1][dE](NH(1-deoxy-D-glucityl))-NH2; linker 7-11 via Pyridine(2,6-diCH2)) | 10 to 79.4 | – |
